One assay concerns IFNγ, TNFα, IL17, IL6. Put plainly: Cytokine ELISA. The assay is classed as in vivo, mouse. The following applies: SLE-prone mice. The source says: (§1) ELISA assays were used to detect for the presence of various cytokines in mouse serum isolated from vehicle or drug-treated animals or from medium supernatant isolated from tissue cell cultures as described above. In addition, ELISA was also used to detect total IgG and dsDNA IgG from mouse serum and for the assay to detect urine albumin and creatinine levels. ELISA detection kits for mouse cytokines IL-6 and TNFα were purchased from eBioscience, mouse cytokines IL-17A, IFNγ, and human IFNγ were purchased from Biolegend, kits for the albumin and creatinine were purchased from Exocell, and kits for the serum IgG and anti-dsDNA IgG were purchased from Alpha Diagnostic (San Antonio, Tex.). ELISAs were all performed according to the manufacturer's instructions.
Cytokine analyses: In brief, capture antibodies for each cytokine were precoated on 96-well plates overnight at 4° C., then 100 μl of 5× diluted serum or 300× diluted supernatant medium was loaded on the precoated wells in duplicate and left overnight at 4° C. (with the exception of the human IFNγ assay isolated from supernatant medium, where the dilution used was 1:30). As per the protocol instructions, enzyme-antibody conjugate, TMB substrate and stopping buffer were added sequentially. The colorimetric analysis, as measured by optical density (OD) within each well, was determined using a microplate reader set at a wavelength of 450 nm. The cytokine concentrations were calculated and measured against a standard curve for each cytokine.
An ELISA was conducted to detect concentrations of IFNγ, TNFα, IL17, and IL6 in T cells derived from spleen.
(In general: ELISA stands for enzyme-linked immunosorbent assay.)

In assay [1] the test system is circulating blood cells of SLE-prone mice. Kind of assay: Blood cell counts and circulating lymphocyte subsets. The assay is classed as in vivo, mouse. The method, then: 50 μl of peripheral blood was collected from mice upon sacrifice and was mixed with 5 mM EDTA anticoagulant to be used for blood cell counts (Hemavet 850FS), to determine numbers of white blood cells (neutrophil, lymphocytes, monocytes, eosinophil and basophil), red blood cells and platelets. In addition, peripheral blood isolated from MRL/lpr mice either treated with vehicle (DMSO) or SHP2 inhibitor was used to count the percentage of lymphocyte subsets, including B cells, CD4+, CD8+ and double negative (DN) T cells through flow cytometry (see below).
(§2) To identify immune cell subsets, isolated cells from tissues were immunostained with mouse antibodies targeted against CD3E (145-2C11, BioLegend, San Diego, Calif.), CD4 (GK1.5, BioLegend), CD8 (53-6.7, eBioscience, San Diego, Calif.), CD45 (30-F11, eBioscience), CD 19 (6125, BioLegend), CD11b (M1170, BioLegend), TCRαβ (H57-597, BioLegend), CD44 (IM7, BioLegend), B220 (RA3-6B2, B.D. […], BD Biosciences, San Jose Calif.), CD138 (281-2, BioLegend), CD38 (CD28.2, BioLegend), Gr-1 (RB6.805, eBioscience), CD62L (DREG-56, BioLegend), and CD25 (PC61, BioLegend) for 30 minutes at 4° C. Samples were acquired on a LSR II flow cytometer (BD Biosciences) and the percentage of each sub-population of cells (B, T, monocytes, macrophage and neutrophils) was assessed by FlowJo [version 7.2.2 (Tree Star)]. Total cell numbers were counted using a hemocytometer. Absolute cell numbers for each sub-population were calculated based on the percentage of each population.

Assay [2] relates to MRL/lpr mouse kidney immune cells. Kind of assay: Flow cytometry of immune cells infiltrating the kidney. The format is in vivo. To be noted: MRL/lpr mice vs vehicle. The protocol:
Kidney, spleen, lung, and axillary lymph nodes were excised from either vehicle or drug-treated mice, and single cell suspensions were obtained by teasing the organs through a nylon mesh. Briefly, kidneys were cut into small pieces and homogenized on a 70 μm nylon mesh in 5 ml of Hank's Balanced Salt Solution (HBSS) buffer. All of the homogenized tissues and cells were transferred to new 50 ml tubes and digested with collagenase type 4 (100 ug/ml) (Worthington Biochemical Corp., Freehold, N.J.) in HBSS for 30 minutes to 2 hours (37° C.) on a rotating shaker. After digestion, the cells were centrifuged at 2000 rpm for 10 minutes, and the kidney cell isolates were generated, which included infiltrated immune cell subsets.
as §2
B cells, T cells, macrophage and neutrophils from the MRL/lpr inhibitor-treated and vehicle-treated mouse kidneys of Example 9 were isolated.
Background: Flow cytometry measures light scatter and fluorescence of single cells or particles in a stream.

Assay [3] concerns serum IgG and anti dsDNA IgG. Kind of assay: Serum IgG and anti-dsDNA IgG ELISA. To be noted: SLE mice serum. The format is in vivo, mouse.
Source text: as §1
Serum IgG and anti-dsDNA IgG: 100 μl of 1:50000× diluted serum for IgG and 100 μl of 1:20000× diluted serum for dsDNA IgG were used and loaded onto a precoated 96-well plate in duplicate for 1 hour at room temperature. […] The OD of the wells was determined using a microplate reader set at a wavelength of 450 nm.
In this Example, the effect of the SHP2 inhibitor, L97M74, on the onset of SLE disease progression was evaluated by measuring the levels of auto antibodies in SLE inhibitor-treated versus vehicle-treated mice through detection anti-histone antibodies and anti-IgG by ELISA.

For another assay, the system named is MRL/lpr mice. Put plainly: Longevity study. The format is in vivo, mouse. To be noted: SLE-prone MRL/lpr mice, 7.5 mg/kg/day ip from 11 weeks of age; listed as SHP2 inhibitor. The protocol: Female MRL/lpr mice were used for a survival/longevity curve analysis. Mice either ip injected with vehicle (DMSO) or SHP2 inhibitor (7.5 mg/kg/each day) were followed beginning at 11 weeks of age to assess tolerance to the inhibitor and longevity/survival curve. The testing was terminated when the last mouse in the control group died, at 26 weeks.

This is an account of results in patent US9844535B2, “SHP2 inhibitors and methods of treating autoimmune and/or glomerulonephritis-associated diseases using SHP2 inhibitors” (Indiana University Research and Technology Corporation, priority 2013, dated 2017).

Entries after “also recorded” stand apart in the source; their conditions may differ.

As to `Cn1c(-c2cccc(NC(=O)C(=O)Nc3ccc(-c4ccsc4)cc3)c2)c(I)c2cc(C(=O)O)c(O)cc21` [11a-1], in the assay with IFNγ, TNFα, IL17, IL6, the IFNγ entry is “significant decreases”, the IL6 result is “No effects”, the IL17 entry is “No effects” and the TNFα entry is “No effects”. Moreover, in assay [1] (SLE mice), the “circulating CD4 and CD8 positive T cell populations” value is “not the CD4 and CD8 positive T cell populations”; the “circulating T cell leukocyte population” value is “significantly altered in SLE and inhibited”; the “circulating double negative T cells” value was “only the double negative cells”. In addition, in assay [1] (SLE mice vs vehicle), the circulating leukocytes entry is “significantly reduced”; the “circulating neutrophils, monocytes, eosinophils, basophils” value was “not neutrophils, monocytes, eosinophils, or basophils”; the “red blood cells or platelets” value is “no effects observed”; the “white blood cell (WBC) population” value was “specifically targets the white blood cell (WBC) population”. In assay [2], the “B cells in kidney” value is “no discernable differences”; the “infiltrating T cells in the SLE kidney” value was “significantly reducing the overall number of CD4, CD8, and double-negative T cells”; the “infiltrating neutrophils and macrophages in kidney” value is “significant reduction in numbers of infiltrating neutrophils and macrophages”. In assay [3], the “levels of IgG” value is reported as “not reduced” and the “levels of double-stranded DNA (anti dsDNA IgG)” value is “not reduced”. Further, the “lifespan / survival (Kaplan-Meier)” value with MRL/lpr mice is reported as “significantly increased lifespan; also recorded: increased longevity/survival effect”.
